Measured values: ChEMBL document CHEMBL1201862, “PubChem BioAssay data set” (2004)
Calls of active or inactive are those of the source.

What was measured:
Cytochrome P450 2C9 = Cytochrome P450 2C9 (Homo sapiens, UniProt P11712)
Cytochrome P450 2C19 = Cytochrome P450 2C19 (Homo sapiens, UniProt P33261); experiment: Cytochrome panel assay with activity outcomes. Panel member name: p450-cyp2c19 Compounds with AC50 equal or less than 10 uM are considered active; format: functional
Cytochrome P450 1A2 = target: T1, Cytochrome P450 1A2 (Homo sapiens, UniProt P05177);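 also: PubChem cytochrome P450 panel assay, CYP1A2 panel member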
T1 sequence (P05177 whole entry): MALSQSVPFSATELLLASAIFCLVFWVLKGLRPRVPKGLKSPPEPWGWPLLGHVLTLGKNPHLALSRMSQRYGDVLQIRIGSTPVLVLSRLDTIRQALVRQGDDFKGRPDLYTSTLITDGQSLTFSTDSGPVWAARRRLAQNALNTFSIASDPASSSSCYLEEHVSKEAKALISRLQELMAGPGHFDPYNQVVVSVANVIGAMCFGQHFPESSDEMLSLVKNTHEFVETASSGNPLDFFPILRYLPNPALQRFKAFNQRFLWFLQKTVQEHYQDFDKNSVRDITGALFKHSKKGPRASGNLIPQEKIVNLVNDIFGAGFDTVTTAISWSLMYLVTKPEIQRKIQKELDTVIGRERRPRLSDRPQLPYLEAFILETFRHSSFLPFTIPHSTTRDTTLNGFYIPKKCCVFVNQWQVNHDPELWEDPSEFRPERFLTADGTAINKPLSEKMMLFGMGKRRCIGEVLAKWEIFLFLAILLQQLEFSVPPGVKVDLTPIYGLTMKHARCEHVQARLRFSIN

Cytochrome P450 2D6 = Cytochrome P450 2D6 (Homo sapiens, UniProt P10635);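 also: CYP2D6 member of a cytochrome P450 panel assay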
[1] = Luminescence Cell-Based Dose Retest to Confirm Inhibitors of Cancer Stem Cells. [Related pubchem assays (depositor defined):AID2717, AID2721]; format: functional; details: Homo sapiens
INS1 = experiment: beta cell apoptosis inhibitors, cytokine rescue, dose response, luminescence, retest (AID 449756); format: functional, cell-based; details: Rattus norvegicus;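 also: cell death triggered by IL-1 beta plus TNF-alpha plus IFN-gamma mixture; protective hits raise ATP signal compared with cytokine alone wells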
[2] = microbe, parasite or virus in culture; format: functional; details: Mycobacterium tuberculosis
Protein skinhead-1 = target: T2, Protein skinhead-1 (Caenorhabditis elegans, UniProt P34707); format: functional
T2 sequence (P34707 whole entry): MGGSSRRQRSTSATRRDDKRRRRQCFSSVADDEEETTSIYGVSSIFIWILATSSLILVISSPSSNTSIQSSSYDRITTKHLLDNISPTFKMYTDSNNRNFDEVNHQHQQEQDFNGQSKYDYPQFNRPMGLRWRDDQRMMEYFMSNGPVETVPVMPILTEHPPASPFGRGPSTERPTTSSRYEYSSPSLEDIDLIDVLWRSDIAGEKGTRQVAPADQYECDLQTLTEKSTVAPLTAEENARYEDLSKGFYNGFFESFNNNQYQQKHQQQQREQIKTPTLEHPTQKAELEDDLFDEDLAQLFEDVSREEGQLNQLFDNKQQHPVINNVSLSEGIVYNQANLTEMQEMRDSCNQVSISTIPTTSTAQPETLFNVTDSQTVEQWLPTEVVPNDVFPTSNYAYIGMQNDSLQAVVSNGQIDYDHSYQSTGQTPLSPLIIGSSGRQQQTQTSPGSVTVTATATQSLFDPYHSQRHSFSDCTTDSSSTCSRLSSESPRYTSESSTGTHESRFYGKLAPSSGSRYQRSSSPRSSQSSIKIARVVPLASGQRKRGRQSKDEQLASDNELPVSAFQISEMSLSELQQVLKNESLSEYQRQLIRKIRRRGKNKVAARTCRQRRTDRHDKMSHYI

[3] = C. albicans growth with fluconazole, confirmation, fluorescence, retest (AID 2467); format: functional, cell-based
[4] = NIH-3T3 fibroblast cytotoxicity, dose response, cytotoxicity control, cell-based, fluorescence, Alamar Blue, secondary assay (AID 2327); format: functional;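 also: NIH-3T3 mouse fibroblasts cultured with fluconazole at 8 µg/mL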
[5] = target: T3, Zinc finger protein mex-5 (Caenorhabditis elegans, UniProt Q9XUB2); experiment: MEX-5/TCR-2 RNA interaction inhibitors, dose response, biochemical, C. elegans, fluorescence polarization (AID 1960)
T3 sequence (Q9XUB2 whole entry): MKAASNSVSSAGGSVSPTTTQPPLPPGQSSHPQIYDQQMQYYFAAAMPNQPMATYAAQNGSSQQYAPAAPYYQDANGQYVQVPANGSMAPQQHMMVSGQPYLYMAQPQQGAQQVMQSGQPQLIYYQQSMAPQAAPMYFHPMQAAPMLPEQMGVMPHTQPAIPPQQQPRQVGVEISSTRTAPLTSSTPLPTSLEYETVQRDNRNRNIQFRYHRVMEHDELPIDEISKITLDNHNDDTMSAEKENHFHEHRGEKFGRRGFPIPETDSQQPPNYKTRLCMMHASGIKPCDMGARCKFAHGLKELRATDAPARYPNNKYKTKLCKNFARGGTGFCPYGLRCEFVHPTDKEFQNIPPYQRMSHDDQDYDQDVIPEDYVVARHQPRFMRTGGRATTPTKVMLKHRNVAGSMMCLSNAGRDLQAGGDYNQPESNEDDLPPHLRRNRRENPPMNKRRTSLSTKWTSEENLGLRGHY

[6] = target: T4, RNA-binding protein pos-1 (Caenorhabditis elegans, UniProt G5EF15); experiment: inhibitors of POS-1/mex-3 RNA binding, dose response, biochemical, fluorescence polarization (AID 1964);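 also: purified POS-1 fused to maltose binding protein made in E. coli; potency of compounds blocking POS-1 binding to fluorescent RNA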
T4 sequence (G5EF15 whole entry): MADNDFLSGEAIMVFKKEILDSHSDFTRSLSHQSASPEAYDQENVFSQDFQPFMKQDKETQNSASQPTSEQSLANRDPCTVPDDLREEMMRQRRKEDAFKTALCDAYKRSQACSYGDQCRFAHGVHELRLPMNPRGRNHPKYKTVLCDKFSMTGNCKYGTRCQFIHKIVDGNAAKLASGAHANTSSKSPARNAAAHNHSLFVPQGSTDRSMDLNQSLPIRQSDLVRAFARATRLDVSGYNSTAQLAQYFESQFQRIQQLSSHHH

[7] = tested on: Streptococcus sp. 'group A'; experiment: growth inhibition of control SK(-) GAS strain, dose response, counter-screen for streptokinase expression inhibitor project, luminescence, kanamycin, BacTiterGlo, confirmation (AID 1900); format: functional, organism-based
Streptococcus = experiment: Group A Streptococcus viability loss, dose response, counter-screen for streptokinase expression inhibitor project, luminescence, BacTiterGlo (AID 1915); format: functional, organism-based;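 also: potency for reduction of bacterial viability or growth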
Streptokinase A = target: T5, Streptokinase A (Streptococcus pyogenes serotype M1, UniProt P10520); experiment: S. pyogenes streptokinase expression inhibitors, potency, dose response, plasminogen activation absorbance, OD405 (AID 1914); format: functional, Streptococcus pyogenes M1 GAS;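 also: secreted streptokinase activity via plasminogen activation per viability signal from cell pellet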
T5 sequence (P10520 whole entry): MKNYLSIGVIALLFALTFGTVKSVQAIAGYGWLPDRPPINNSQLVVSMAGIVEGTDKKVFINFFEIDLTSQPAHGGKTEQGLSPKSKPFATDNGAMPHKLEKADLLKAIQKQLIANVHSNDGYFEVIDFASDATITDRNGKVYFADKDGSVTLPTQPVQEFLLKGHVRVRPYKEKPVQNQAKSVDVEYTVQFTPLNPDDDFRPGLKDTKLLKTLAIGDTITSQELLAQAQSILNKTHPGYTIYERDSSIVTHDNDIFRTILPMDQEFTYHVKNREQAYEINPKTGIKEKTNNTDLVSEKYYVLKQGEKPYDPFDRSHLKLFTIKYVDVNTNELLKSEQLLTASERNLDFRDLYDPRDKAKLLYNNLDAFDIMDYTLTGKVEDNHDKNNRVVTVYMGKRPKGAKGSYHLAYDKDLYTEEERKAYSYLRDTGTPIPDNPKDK

[8] = Luminescence Cell-Based Dose Response HTS to Identify Activators of Luciferase Translation or Activity in H4 […] Cells. [Related pubchem assays: 1829 (Project Summary), 1814 (Primary HTS)]; format: functional
H4 = experiment: Luminescence Cell-Based Dose Response HTS to Identify Activators of 5'UTR Stem-Loop Driven Prion Protein mRNA Translation in H4 Neuroglioblastoma Cells. [Related pubchem assays: 1829 (Project Summary), 1814 (Primary HTS)]; format: functional; details: Homo sapiens

Cytochrome P450 2C9, sequence (P11712 whole entry): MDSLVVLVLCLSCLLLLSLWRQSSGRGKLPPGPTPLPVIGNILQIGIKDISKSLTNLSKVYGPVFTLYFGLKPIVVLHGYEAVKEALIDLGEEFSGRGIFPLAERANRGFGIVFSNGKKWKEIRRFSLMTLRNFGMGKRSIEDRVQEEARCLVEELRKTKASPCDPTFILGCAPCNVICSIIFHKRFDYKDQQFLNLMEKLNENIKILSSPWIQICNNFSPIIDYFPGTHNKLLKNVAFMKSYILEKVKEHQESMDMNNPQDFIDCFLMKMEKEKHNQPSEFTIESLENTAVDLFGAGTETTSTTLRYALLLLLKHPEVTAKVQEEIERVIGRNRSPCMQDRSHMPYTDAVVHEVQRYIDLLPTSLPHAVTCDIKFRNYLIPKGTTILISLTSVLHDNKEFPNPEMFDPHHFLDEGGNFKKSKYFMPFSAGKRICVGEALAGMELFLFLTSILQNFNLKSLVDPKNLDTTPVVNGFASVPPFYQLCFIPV
Cytochrome P450 2D6, sequence (P10635 whole entry): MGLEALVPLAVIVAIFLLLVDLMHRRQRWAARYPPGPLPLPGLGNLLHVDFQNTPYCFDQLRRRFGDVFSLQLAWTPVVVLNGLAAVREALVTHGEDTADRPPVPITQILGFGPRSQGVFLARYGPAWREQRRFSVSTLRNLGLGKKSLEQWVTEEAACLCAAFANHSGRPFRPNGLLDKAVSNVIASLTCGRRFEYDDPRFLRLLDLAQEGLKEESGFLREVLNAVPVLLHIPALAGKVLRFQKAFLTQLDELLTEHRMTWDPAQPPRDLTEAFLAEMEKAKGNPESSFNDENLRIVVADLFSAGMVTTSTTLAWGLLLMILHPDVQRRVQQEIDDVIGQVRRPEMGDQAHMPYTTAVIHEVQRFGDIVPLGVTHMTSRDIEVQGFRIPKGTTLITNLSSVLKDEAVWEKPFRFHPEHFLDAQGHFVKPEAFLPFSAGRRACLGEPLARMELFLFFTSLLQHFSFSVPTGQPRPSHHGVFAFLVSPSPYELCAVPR
Cytochrome P450 2C19, sequence (P33261 whole entry): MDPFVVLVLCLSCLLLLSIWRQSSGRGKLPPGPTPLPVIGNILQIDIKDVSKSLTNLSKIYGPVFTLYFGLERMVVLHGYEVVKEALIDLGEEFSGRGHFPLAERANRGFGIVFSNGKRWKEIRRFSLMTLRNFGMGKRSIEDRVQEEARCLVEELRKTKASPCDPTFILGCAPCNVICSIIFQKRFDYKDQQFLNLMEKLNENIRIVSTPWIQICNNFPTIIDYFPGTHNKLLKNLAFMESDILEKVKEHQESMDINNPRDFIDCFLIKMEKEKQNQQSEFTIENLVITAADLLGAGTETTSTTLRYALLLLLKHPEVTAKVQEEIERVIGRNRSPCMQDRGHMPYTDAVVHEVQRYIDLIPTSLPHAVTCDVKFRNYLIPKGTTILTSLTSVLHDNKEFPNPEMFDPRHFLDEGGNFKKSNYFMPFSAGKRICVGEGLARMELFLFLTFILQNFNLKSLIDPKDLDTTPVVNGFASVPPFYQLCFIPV

## CCOc1ccc(/C=N/Nc2nc(N3CCCC3)nc(N3CCCC3)n2)cc1OC
Cytochrome P450 2C9
  AC50: inconclusive
Cytochrome P450 2C19; read-out: AC50
  AC50: 39.8 µM (inconclusive)
Cytochrome P450 1A2
  AC50: 39.8 µM (inconclusive)

## O[C@@H](c1cc(C(F)(F)F)nc2c(Cl)cc(Cl)cc12)[C@@H]1CCCCN1
Cytochrome P450 2D6
  AC50: 3.16 µM (inconclusive)

## CCN=C(S)N1CCC(NC(=O)C2CCCCC2)CC1
Cytochrome P450 2C9
  AC50: inconclusive
Cytochrome P450 2C19
  AC50: inconclusive

## CN(C)c1ccc(-c2cc(O)c3ncccc3c2)cc1
[1]
  AC50: 7.11 µM (active)
INS1
  AC50: 5.16 µM (active)
[2]
  CC50: 23.2 µM (active)

## O=C(NCc1ccco1)c1sc2cc(F)ccc2c1Cl
Protein skinhead-1
  IC50: > 100 µM (inactive)

## O=C(CSc1nc2cc(Br)c[nH]c-2n1)Nc1ccc2c(c1)OCO2
[2]
  CC50: > 40 µM (active)

## CSC(=Nc1ccc(F)c(Cl)c1)NS(=O)(=O)c1cccs1
[3]
  EC50: 0.805 µM (active)
[4]
  EC50: > 150 µM (inactive)

## O=C(NNC(=O)c1cnccn1)c1ccc(Cl)cc1
[5]
  EC50: 12.4 µM (active)
[6]
  EC50: 95.9 µM (active)

## CCOc1cc(CNCCSc2nnnn2C)cc(Br)c1OCc1ccc(F)cc1
Protein skinhead-1
  IC50: 6.7 µM (active)

## CC[C@@H]1CN2CCc3cc(OC)c(OC)cc3[C@H]2C[C@@H]1C[C@@H]1NCCc2cc(O)c(OC)cc21
Cytochrome P450 2D6
  AC50: 10 µM (inconclusive)

## O=C(NCc1ccccn1)C1CC(c2ccc(Cl)c(Cl)c2)=NO1 (centres undefined)
Cytochrome P450 2C9
  AC50: inconclusive
Cytochrome P450 1A2
  AC50: 4.47 µM (inconclusive)

## O=C(CCN1C(=O)/C(=C\C=C\c2ccccc2)SC1=S)Nc1ccc(C(=O)O)cc1
[5]
  EC50: 38.7 µM (active)
[6]
  EC50: > 300 µM (not active)

## Cc1nnc(NC(=O)c2ccc(S(=O)(=O)N(C)Cc3ccccc3)cc2)o1
[3]
  EC50: 2.21 µM (active)
[7]
  EC50: 4.98 µM (active)
[4]
  EC50: 21.7 µM (active)
Streptococcus
  EC50: 17 µM (active)
Streptokinase A
  EC50: > 150 µM (not active)

## CC(C)(C)C1CCc2sc(-c3nnc(CCl)o3)cc2C1 (centres undefined)
[2]
  CC50: 21 µM (active)

## CCn1nnc2sc3c(c2c1=O)CCC(C)C3 (centres undefined)
Protein skinhead-1
  IC50: > 100 µM (inactive)

## CCCNC(=O)COC(=O)C1CCN(S(=O)(=O)c2ccc3c(c2)OCCO3)CC1
Protein skinhead-1
  IC50: > 100 µM (inactive)

## c1csc(CSc2nc3ccccc3s2)c1
[8]
  EC50: 1.12 µM (active)
H4
  EC50: 36.9 µM (active)
Protein skinhead-1
  IC50: 27.5 µM (active)

## NS(=O)(=O)c1ccc(NC(S)=NNC(=O)CCC(=O)Nc2ccccc2Cl)cc1
[5]
  EC50: 12.2 µM (active)
[6]
  EC50: 13 µM (inconclusive)
